Targets include A*0202 (Homo sapiens, UniProt P04439, D140Y/D185E/D98H/E176V/E277Q/G131W/G231S/I119L/I121R/I166T/I218V/L180W/L300P/L318F/N151K/N90K/P208A/P217A/Q67R/Q86G/Q94H/R138H/R169H/T345S); HLA-A*0201 (HLA-A2.1) (Homo sapiens, UniProt P04439, D140Y/D185E/D98H/E176V/E277Q/G131W/G231S/I119V/I121R/I166T/I218V/L300P/L318F/N151K/N90K/P208A/P217A/Q86G/Q94H/R138H/R169H/T345S); A*0203 (Homo sapiens, UniProt P04439, A173T/D140Y/D185E/D98H/E277Q/G131W/G231S/I119V/I121R/I166T/I218V/L180W/L300P/L318F/N151K/N90K/P208A/P217A/Q86G/Q94H/R138H/R169H/T345S); A*0206 (Homo sapiens, UniProt P04439, D140Y/D185E/D98H/E176V/E277Q/F33Y/G131W/G231S/I119V/I121R/I166T/I218V/L300P/L318F/N151K/N90K/P208A/P217A/Q86G/Q94H/R138H/R169H/T345S); A*6802 (Homo sapiens, UniProt P04439, A269V/D140Y/D185E/E176V/E277Q/E87N/F33Y/G231S/I121R/I166T/I218V/L180W/L300P/L318F/N151K/P208A/P217A/Q86R/R138H/R169H/S129P/T345S/V36M).

Common to all, as to assay: biochemical
Holding throughout (format): binding

No end group written: not given here.

For 36 compounds, IC50 results are on record in US9340577B2, “HLA binding motifs and peptides and their uses” (priority 1992, dated 2016).

A word on the IC50: it is the point on the concentration scale where inhibition reaches its midpoint. The low end stands for higher potency, the high end for lower potency. Turning to `CC(C)[C@H](NC(=O)[C@@H](NC(=O)[C@H](CC(N)=O)NC(=O)[C@H](CCC(N)=O)NC(=O)[C@H](C)NC(=O)[C@H](CCC(=O)O)NC(=O)[C@@H]1CCCN1C(=O)[C@H](CCC(=O)O)NC(=O)[C@H](CS)NC(=O)[C@@H](NC(=O)[C@@H](N)Cc1ccccc1)[C@@H](C)O)[C@@H](C)O)C(=O)O` [Peptide 9013.0323], the IC50 against A*0202 stood at 29 nM; at HLA-A*0201 (HLA-A2.1) it was 336 nM; against A*0203, 86 nM; against A*0206, 920 nM.
Consider AIFGVNPTV [Peptide 1578.25], for which the 50% inhibitory concentration (IC50) against A*0202 amounted to 21 nM; against HLA-A*0201 (HLA-A2.1), 205 nM; against A*0203 it was 92 nM; against A*0206 it was 96 nM.
The like results for ALYSWLIDGNI [Peptide 9013.0315] were, in that order, 3.6 nM, 25 nM, 7 nM and 92 nM.
As for AQYSWFVNGV [Peptide 9013.0172], the IC50 on A*6802 is 12000 nM; at A*0202 it was 1.2 nM; on A*0203, 2.4 nM; on A*0206 it was 13 nM.
Taken in the same sequence, the figures for AQYSWLIDGNV [Peptide 9013.0314] were 15600 nM, 62 nM, 48 nM and 70 nM.
For the compound ELLLLVHNL [Peptide 9013.0022], the IC50 on A*0202 was 1880 nM; against A*0203, greater than 20000 nM; on A*0206, 7180 nM.
In the case of FLGALKSFL [Peptide 1578.11], the IC50 against A*0202 was determined as 0.3 nM; at HLA-A*0201 (HLA-A2.1) it was 719 nM; at A*0203 it was 2.1 nM; on A*0206 it was 1720 nM.
The like results for FLQGCIISYA [Peptide 1578.18] were, in that order, 2.6 nM, 93 nM, 9 nM and 241 nM.
For FQQSTQELFV [Peptide 9013.0178], the IC50 against A*6802 is greater than 20000 nM; against A*0202 it was 21 nM; on A*0203 it was 46 nM; against A*0206, 60 nM.
On to GLLVGVALI [Peptide 9013.0111], for which the IC50 on A*0202 is 89 nM; on HLA-A*0201 (HLA-A2.1), 158 nM; against A*0203, 13 nM; at A*0206, 206 nM.
With GLSLPVSPRL [Peptide 9013.0220], the IC50 on A*6802 was greater than 20000 nM; against A*0202 it was 223 nM; against A*0203 it was 3870 nM; against A*0206 it was greater than 20000 nM.
With GMGCTGWFEV [Peptide 1578.19], the IC50 against A*6802 came out at 1320 nM; at A*0202, 37 nM; against A*0203, 62 nM; on A*0206, 1460 nM.
Regarding GTFQQSTQEV [Peptide 9013.0175], the IC50 against A*0202 is 157 nM; against HLA-A*0201 (HLA-A2.1), greater than 20000 nM; on A*0203 it was 431 nM; at A*0206, 2050 nM.
The like results for GVLVGVALV [Peptide 9013.0110] were, in that order, 6090 nM, 946 nM, 472 nM and 56 nM.
Take ILNTTYLWWV [Peptide 9013.0195]: the half-maximal inhibitory concentration (IC50) against A*6802 came to 15900 nM; on A*0202 it was 121 nM; on A*0203, 22 nM; against A*0206, 775 nM.
Take ILQHTQELFI [Peptide 9013.0212]: the IC50 at A*6802 was greater than 20000 nM; at A*0202 it was 49 nM; on A*0203, 594 nM; against A*0206, greater than 20000 nM.
Regarding ILYAHIQCL [Peptide 1578.08], the IC50 came out at 16400 nM at A*6802, 9.4 nM at A*0202, 10 nM on A*0203 and 420 nM against A*0206.
For the compound ITIGVLVGV [Peptide 9013.0109], the 50% inhibitory concentration (IC50) against A*6802 was found to be 9 nM; against A*0202, 43 nM; at A*0203, 16 nM; at A*0206 it was 55 nM.
Turning to ITVNNSGSYV [Peptide 9013.0187], the IC50 at A*0202 was 334 nM; against HLA-A*0201 (HLA-A2.1), greater than 20000 nM; against A*0203 it was 255 nM; on A*0206, 1010 nM.
Taken in the same sequence, the figures for LLIESTPFNV [Peptide 9013.0128] were 4 nM, 16 nM, 8.1 nM and 62 nM.
Taken in the same sequence, the figures for LQGAIISFV [Peptide 1578.28] were 6.6 nM, 42 nM, 11 nM and 20 nM.
The like results for LTFWNPPTV [Peptide 9013.0006] were, in that order, 17 nM, 3.4 nM, 2.3 nM and 5.2 nM.
For the compound LTNTGLYNL [Peptide 1481.17], the IC50 is 1580 nM against A*6802, 20 nM against A*0202, 4990 nM on A*0203 and 1830 nM at A*0206.
In the case of NLAEGKEVLL [Peptide 9013.0134], the concentration for half-maximal inhibition (IC50) against A*6802 was greater than 20000 nM; against A*0202, 9.2 nM; at A*0203, 2030 nM; on A*0206, 16900 nM.
For the compound NLTVNNSGSYT [Peptide 9013.0303], the IC50 at A*0202, at HLA-A*0201 (HLA-A2.1), at A*0203 and at A*0206 was greater than 20000 nM in each case.
Regarding NVAEGKEVLV [Peptide 9013.0133], the IC50 on A*0202 was 1140 nM; against HLA-A*0201 (HLA-A2.1), greater than 20000 nM; against A*0203 it was 19600 nM; against A*0206 it was greater than 20000 nM.
In the case of QLHTQVLFI [Peptide 9013.0103], the IC50 was greater than 20000 nM on A*6802, 22 nM at A*0202, 39 nM at A*0203 and 5520 nM against A*0206.
In the case of SLMKFLQGSV [Peptide 1578.04], the concentration for half-maximal inhibition (IC50) amounted to 31 nM against A*0202, 436 nM against HLA-A*0201 (HLA-A2.1), 4.6 nM at A*0203 and 1450 nM against A*0206.
The like results for TLDATYLWWV [Peptide 9013.0158] were, in that order, 137 nM, 61 nM, 468 nM and 155 nM.
As for TLVTTITVYA [Peptide 9013.0193], the 50% inhibitory concentration (IC50) on A*0202 was 11 nM; on HLA-A*0201 (HLA-A2.1) it was 781 nM; against A*0203 it was 57 nM; on A*0206, 1740 nM.
The like results for TLYAHIQCL [Peptide 1578.26] were, in that order, 4.9 nM, 269 nM, 9.4 nM and 420 nM.
For TVESTPFNV [Peptide 9013.0013], the IC50 against A*0202 was 1910 nM; against HLA-A*0201 (HLA-A2.1), 17200 nM; against A*0203 it was 6160 nM; at A*0206 it was 2390 nM.
As to WLRLLLTASL [Peptide 9013.0116], the IC50 against A*6802 was found to be 19800 nM; against HLA-A*0201 (HLA-A2.1), 8820 nM; against A*0203 it was 32 nM; at A*0206 it was 17400 nM.
The like results for WLRLLLTASLL [Peptide 9013.0254] were, in that order, greater than 20000 nM, 3480 nM, 12 nM and 11800 nM.
The like results for WQRLLLTASV [Peptide 9013.0115] were, in that order, greater than 20000 nM, 5110 nM, 36 nM and 2230 nM.
Taken in the same sequence, the figures for YTLHVIKSDV [Peptide 9013.0151] were 16 nM, 4370 nM, 972 nM and 54 nM.
